# Results reported in the supplement of paper PMC10307832.
# Legend:
# Assay in all cases: relative viability (nuclei count vs DMSO), 5 days (fraction); higher = more cells survive
# [1] = system: NCI-H522
# How it was run: (§1)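 For relative viability, nuclei counts in treated wells were divided by those in vehicle wells. Lung cancer cell lines had been pin-tool dosed in 1536-well plates the day after seeding and cultured for 5 days, then fixed and stained in one step (final 0.05% Triton X-100, 1% formaldehyde, 1 ug/ml Hoechst) and imaged at 4×. Doses were one drug alone or a fixed anchor-drug dose plus five library-drug doses (not always all listed) in √10 steps, and values are duplicate-plate medians.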
# [2] = system: NCI-H3122
# How it was run: as §1
# [3] = system: NCI-H596
# How it was run: as §1
# [4] = system: NCI-H727
# How it was run: as §1
# [5] = system: HOP-62
# How it was run: as §1
# [6] = system: NCI-H2170
# How it was run: as §1
# [7] = system: ABC-1
# How it was run: as §1
# [8] = system: SK-MES-1
# How it was run: as §1
# [9] = system: NCI-H1944
# How it was run: as §1
# [10] = system: EMC-BAC-2
# How it was run: as §1
# [11] = system: SW 900
# How it was run: as §1
# [12] = system: LK-2
# How it was run: as §1
# [13] = system: A-427
# How it was run: as §1
# [14] = system: NCI-H322M
# How it was run: as §1
# [15] = system: NCI-H2009
# How it was run: as §1
# [16] = system: LXF-289
# How it was run: as §1
# [17] = system: HARA
# How it was run: as §1
# [18] = system: NCI-H2228
# How it was run: as §1
# [19] = system: SW 1573
# How it was run: as §1
# [20] = system: PC-3 [JPC-3]
# How it was run: as §1
# [21] = system: NCI-H1792
# How it was run: as §1
# [22] = system: NCI-H1993
# How it was run: as §1
smiles,measurement,setting,value
COc1nc(C)cnc1NS(=O)(=O)c1cccnc1-c1ccc(-c2nnco2)cc1 [Zibotentan] + O=C(c1cc(Cc2n[nH]c(=O)c3ccccc23)ccc1F)N1CCN(C(=O)C2CC2)CC1 [Olaparib] (partner 8 µM),relative viability,[1]; first compound 0.08 µM,0.65
same,relative viability,[1]; first compound 0.253 µM,0.75
same,relative viability,[1]; first compound 0.8 µM,0.681
same,relative viability,[1]; first compound 2.53 µM,0.703
same,relative viability,[2]; first compound 0.08 µM,0.625
same,relative viability,[2]; first compound 0.253 µM,0.549
same,relative viability,[2]; first compound 0.8 µM,0.581
same,relative viability,[2]; first compound 2.53 µM,0.608
same,relative viability,[3]; first compound 0.08 µM,0.661
same,relative viability,[3]; first compound 0.253 µM,0.595
same,relative viability,[3]; first compound 0.8 µM,0.831
same,relative viability,[3]; first compound 2.53 µM,0.774
same,relative viability,[4]; first compound 0.08 µM,0.712
same,relative viability,[4]; first compound 0.253 µM,0.586
same,relative viability,[4]; first compound 0.8 µM,0.661
same,relative viability,[4]; first compound 2.53 µM,0.868
same,relative viability,[5]; first compound 0.08 µM,0.429
same,relative viability,[5]; first compound 0.253 µM,0.34
same,relative viability,[5]; first compound 0.8 µM,0.503
same,relative viability,[5]; first compound 2.53 µM,0.502
same,relative viability,[6]; first compound 0.08 µM,0.571
same,relative viability,[6]; first compound 0.253 µM,0.648
same,relative viability,[6]; first compound 0.8 µM,0.522
same,relative viability,[6]; first compound 2.53 µM,0.568
same,relative viability,[7]; first compound 0.08 µM,1
same,relative viability,[7]; first compound 0.253 µM,0.527
same,relative viability,[7]; first compound 0.8 µM,0.8
same,relative viability,[7]; first compound 2.53 µM,0.819
same,relative viability,[8]; first compound 0.08 µM,0.705
same,relative viability,[8]; first compound 0.253 µM,0.465
same,relative viability,[8]; first compound 0.8 µM,0.68
same,relative viability,[8]; first compound 2.53 µM,0.787
same,relative viability,[9]; first compound 0.08 µM,0.417
same,relative viability,[9]; first compound 0.253 µM,0.369
same,relative viability,[9]; first compound 0.8 µM,0.392
same,relative viability,[9]; first compound 2.53 µM,0.406
same,relative viability,[10]; first compound 0.08 µM,0.519
same,relative viability,[10]; first compound 0.8 µM,0.562
same,relative viability,[10]; first compound 2.53 µM,0.461
same,relative viability,[11]; first compound 0.08 µM,0.922
same,relative viability,[11]; first compound 0.253 µM,0.647
same,relative viability,[11]; first compound 0.8 µM,0.853
same,relative viability,[11]; first compound 2.53 µM,0.81
same,relative viability,[12]; first compound 0.08 µM,0.945
same,relative viability,[12]; first compound 0.253 µM,0.521
same,relative viability,[12]; first compound 0.8 µM,0.75
same,relative viability,[12]; first compound 2.53 µM,0.718
same,relative viability,[13]; first compound 0.08 µM,0.755
same,relative viability,[13]; first compound 0.253 µM,0.704
same,relative viability,[13]; first compound 0.8 µM,0.64
same,relative viability,[13]; first compound 2.53 µM,0.799
same,relative viability,[14]; first compound 0.08 µM,0.758
same,relative viability,[14]; first compound 0.253 µM,0.659
same,relative viability,[14]; first compound 0.8 µM,0.949
same,relative viability,[14]; first compound 2.53 µM,0.727
same,relative viability,[15]; first compound 0.08 µM,0.688
same,relative viability,[15]; first compound 0.253 µM,0.589
same,relative viability,[15]; first compound 0.8 µM,0.671
same,relative viability,[15]; first compound 2.53 µM,0.787
same,relative viability,[16]; first compound 0.08 µM,1.01
same,relative viability,[16]; first compound 0.253 µM,1
same,relative viability,[16]; first compound 0.8 µM,1.14
same,relative viability,[16]; first compound 2.53 µM,1.09
same,relative viability,[17]; first compound 0.08 µM,0.856
same,relative viability,[17]; first compound 0.8 µM,0.455
same,relative viability,[17]; first compound 2.53 µM,0.883
same,relative viability,[18]; first compound 0.08 µM,0.658
same,relative viability,[18]; first compound 0.253 µM,0.573
same,relative viability,[18]; first compound 0.8 µM,0.863
same,relative viability,[18]; first compound 2.53 µM,0.924
same,relative viability,[19]; first compound 0.08 µM,0.557
same,relative viability,[19]; first compound 0.8 µM,0.544
same,relative viability,[19]; first compound 2.53 µM,0.459
same,relative viability,[20]; first compound 0.08 µM,1.1
same,relative viability,[20]; first compound 0.253 µM,1.09
same,relative viability,[20]; first compound 0.8 µM,1.21
same,relative viability,[20]; first compound 2.53 µM,1.14
same,relative viability,[21]; first compound 0.08 µM,0.235
same,relative viability,[21]; first compound 0.253 µM,0.408
same,relative viability,[21]; first compound 0.8 µM,0.323
same,relative viability,[21]; first compound 2.53 µM,0.373
same,relative viability,[22]; first compound 0.08 µM,1.01
same,relative viability,[22]; first compound 0.253 µM,0.842
same,relative viability,[22]; first compound 0.8 µM,0.853
same,relative viability,[22]; first compound 2.53 µM,1.08
